Laboratory results from patent US11576892B2, “Benzopyran derivatives and uses thereof” (Novation Pharmaceuticals Inc., priority 2015, dated 2023).

Experiments:
[1] = test system: IL-6 release from THP 1 cells; experiment: IL-6 release from THP 1 cells measured by ELISA; assay type: cell-based, human; conditions: IFNγ/LPS-stimulated THP 1 cells, 24 h
Experimental: (§1) The THP 1 cell line is generally available and is described by Tsuchia et. al. Tsuchiya, Yamabe et al. (1980). Establishment and characterization of a human acute monocytic leukemia cell line (THP-1). Int J Cancer. 26: 171-176.
(§2) 900 μl THP 1 cells (0.5×10^6 cells) together with 100 Uγ interferon/0.9 ml RPMI 1640 medium (containing 2 mM L glutamine and 5% heat inactivated fetal calf serum) are pipetted into 24-well culture plates. 100 μl of the compound to be tested are then added. After 3 hours at 37° C. in 5% CO2/95% air, 10 μl lipopolysaccharide (LPS) 500 μg/ml is added and the incubation continued for a further 24 hours. Appropriate controls (with and without stimulus, solvent) are also included. The media are then removed and clarified by centrifugation at 1000 g for 10 min. Samples are stored at […] until the determinations can be made. IL 1β, IL 6 IL-12, and IL-23 assays are determined using commercially available ELISA kits. In these tests, the compounds of the disclosure may inhibit IL-1β, IL-6, IL-12 and IL-23 release at a concentration of about 10 to 50 μM. The compounds are non-toxic based on resazurin measurements as described in Didiot, Hewett et al. (2013). Identification of cardiac glycoside molecules as inhibitors of c-Myc IRES-mediated translation. J Biomol Screen. 18: 407-419.

IL-23 p19 mRNA = experiment: mRNA stability reporter gene (luciferase) assay, IL-23 p19; assay type: cell-based; conditions: 10 μM, 24 h, n.a. = no activity
Experimental: (§3) The basic principle of a reporter gene assay for determining compounds that destabilize mRNA is described in detail in WO 00/39314. A number of these assays for various drug targets have been developed and were tested with the compounds described in this disclosure. For THP-1 cells, compound is added at the time of the addition of LPS and luciferase measurements are taken 24 hours later or as indicated. For other cell lines, cells were plated in 96 well plates at 5*10^5 cells per 100 ul per well and incubated over night at 37° C. Compounds were then added and luciferase activity was measured after 24 hours. The activity was compared to other mRNA stability assays established for a range of other drug targets and found to be specific for IL-6, IL-12p40 and IL-23p19. Luciferase activity in the IL-6, IL-12 and IL-23 assays was inhibited by 10 μM benzopyran derivatives by >40% (Table IV).

IFNγ release from PBMCs = IFNγ release from PBMCs measured by ELISA; assay type: cell-based; conditions: 5 μM, human PBMCs
Experimental: (§4) Mononuclear cells are obtained from the blood of healthy volunteers via centrifugation and cultivated on tissue culture dishes with the test compound at various concentrations Schnyder, Bollinger et al. (1990). Inhibition of interleukin-1 release by IX 207-887. Agents Actions. 30: 350-362. Fresh human mononuclear cells were isolated on Ficoll-Paque gradient and washed several times. Fresh medium, test compound and LPS (10 μg/ml) or PHA (5 μg/ml) as stimulant are added and the monocytes incubated for a further day. The media are then removed and clarified by centrifugation at 1000×g for 10 min. Samples are stored at […] until the determinations can be made. IFNγ, IL 1β, IL 6, and IL-17 are determined using commercially available ELISA kits.

IL-6 release from PBMCs = IL-6 release from PBMCs measured by ELISA; assay type: cell-based; conditions: LPS or PHA stimulated human PBMCs
Experimental: as §4

IL-17 release from PBMCs = IL-17 release from PBMCs measured by ELISA; assay type: cell-based; conditions: human PBMCs
Experimental: as §4

[2] = test system: IL-1β release from THP 1 cells; experiment: IL-1β release from THP 1 cells measured by ELISA; assay type: cell-based, human; conditions: IFNγ/LPS-stimulated THP 1 cells
Experimental: as §1, §2

IL-4 = experiment: LPS-induced cytokine release in mice, serum IL-4; assay type: in vivo; conditions: 100 mg/kg pre-treatment; serum 4 h post LPS; CD-1 mouse
Experimental: (§5) Compounds were evaluated on intra-peritoneal LPS-induced cytokine release measured in serum in the CD-1 mouse. Vehicle, Test item and positive control were administered 1 h before LPS injection as well 30 min post LPS injection (except as otherwise varied herein). In serum samples collected at 4 h post LPS injection, following cytokines were measured by multiplex on MSD 10 V-plex platform: TNF-alpha, IFN-gamma, IL-1beta, IL-2, IL-4, IL-5, IL-6, IL-10, IL-12, KC/GRO. All cytokines except IL-5 were induced by LPS injection (compared with saline injection).
(§6) Serum samples collected at 4h post LPS challenge were analyzed in duplicate wells using multiplex on MSD 10 V-plex platform. […] FIG. 1: Effect of test compounds 333 (TI1) and 1781 (TI2) on IFN-gamma levels in serum of LPS treated mice. FIG. 2: Effect of test compounds 333 (TI1) and 1781 (TI2) on IFN-gamma levels in serum of LPS treated mice (values of individual animals)

IL-6 mRNA [3] = experiment: IL-6 mRNA levels in IFN-γ/LPS-stimulated THP-1 cells (RT-PCR); assay type: cell-based, human; conditions: γIFN/LPS, 24h, compounds 10 μM, RT-PCR vs β-actin
Experimental: Total RNA was isolated at t=24 h from IFN-γ/LPS-stimulated THP-1 cells exposed to compounds (10 μM) or DMSO (solvent control) for 24 […], using the RNeasy Midi Kit (Qiagen), according to the manufacturer's instructions, and eluted in DEPC-treated Milli-Q H2O. Quantity and purity of RNA were determined by absorbance at 260 and 280 nm.
For RT-PCR analysis, 1 μg of total RNA was reverse transcribed using AMV reverse transcriptase (Life Sciences Inc., St. Petersburg, Fla.), then amplified by the PCR method. Each PCR reaction also contained a set of β-actin primers as internal control. The levels of the expected PCR product were compared to the constant levels of β-actin. The size of the PCR products was compared to MspI digested pBR322 standards (New England Biolabs). PCR products were analyzed on a 4% agarose gel.
Nucleotide sequences for the oligonucleotide 5′ and 3′ primers, respectively, were: […]

[4] = test system: IL-23 release from THP 1 cells; experiment: IL-23 release from THP 1 cells measured by ELISA; assay type: cell-based, human; conditions: IFNγ/LPS-stimulated THP 1 cells
Experimental: as §1, §2

TNF-alpha = experiment: LPS-induced cytokine release in mice, serum TNF-alpha; assay type: in vivo; conditions: 100 mg/kg pre-treatment; serum 4 h post LPS; CD-1 mouse
Experimental: as §5, §6

IL-12 = experiment: LPS-induced cytokine release in mice, serum IL-12; assay type: in vivo; conditions: 100 mg/kg pre-treatment; serum 4 h post LPS; CD-1 mouse
Experimental: as §5, §6

IFN-gamma = experiment: LPS-induced cytokine release in mice, serum IFN-gamma; assay type: in vivo; conditions: 100 mg/kg pre-treatment; serum 4 h post LPS; CD-1 mouse
Experimental: as §5, §6

IL-6 mRNA [5] = experiment: mRNA stability reporter gene (luciferase) assay, IL-6; assay type: cell-based; conditions: 24 h
Experimental: as §3

IL-12 p40 mRNA = experiment: mRNA stability reporter gene (luciferase) assay, IL-12 p40; assay type: cell-based; conditions: 10 μM, 24 h, n.a. = no activity
Experimental: as §3

IL-1β release from PBMCs = IL-1β release from PBMCs measured by ELISA; assay type: cell-based; conditions: LPS or PHA stimulated human PBMCs
Experimental: as §4

| Compound | IL-6 release from THP 1 cells, % control ([1]; 10 μM) | IL-6 release from THP 1 cells, % control ([1]; 40 μM) | IL-6 release from THP 1 cells, % control ([1]; 100 μM) | IL-23 p19 mRNA stability assay (% inhibition) (IL-23 p19 mRNA) | IFNγ release from PBMCs, % control (24 h) (IFNγ release from PBMCs) | IL-6 release from PBMCs (% control) (IL-6 release from PBMCs; 2.5 μM) | IL-6 release from PBMCs (% control) (IL-6 release from PBMCs; 5 μM) | IL-6 release from PBMCs (% control) (IL-6 release from PBMCs; 10 μM) | IL-6 release from PBMCs (% control) (IL-6 release from PBMCs; 20 μM) | IL-17 release from PBMCs, % control (48 h) (IL-17 release from PBMCs; 2.5 μM) | IL-17 release from PBMCs, % control (48 h) (IL-17 release from PBMCs; 5 μM) | IL-17 release from PBMCs, % control (48 h) (IL-17 release from PBMCs; 10 μM) | IL-1β release from THP 1 cells, % control at 10 μM [2] | Effect on serum IL-4 (IL-4) | IL-6 mRNA analysis, % ctrl (IL-6 mRNA [3]) | IL-23 release from THP 1 cells, % control at 10 μM [4] | IL-1β release from PBMCs (% control) (IL-1β release from PBMCs; 2.5 μM) | IL-1β release from PBMCs (% control) (IL-1β release from PBMCs; 5 μM) | IL-1β release from PBMCs (% control) (IL-1β release from PBMCs; 10 μM) | IL-1β release from PBMCs (% control) (IL-1β release from PBMCs; 20 μM) | other results |
| --- | --- | --- | --- | --- | --- | --- | --- | --- | --- | --- | --- | --- | --- | --- | --- | --- | --- | --- | --- | --- | --- |
| COC(=O)c1ccc(Oc2coc3cc(O)ccc3c2=O)cc1 [Compound 333, methyl 4-[(7-hydroxy-4-oxo-4H-chromen-3-yl)oxy]benzoate] | 48 % control | 43 % control | 35 % control | 76 % inhibition | 43 % control | 121 % control | 158 % control | 176 % control | 68 % control | 93 % control | 80 % control | 41 % control | 49 % control | trend of effect | 94 % ctrl | 68 % control | 105 % control | 91 % control | 58 % control | 45 % control | Effect on serum TNF-alpha (TNF-alpha): trend of effect; Effect on serum IL-12 (IL-12): trend of effect; Effect on LPS-induced increase in serum IFN-gamma level (IFN-gamma): significantly blocked; IC50 (IL-6 mRNA [5]; luciferase reporter): 2510 nM; IL-12 p40 mRNA stability assay (% inhibition) (IL-12 p40 mRNA): 72 % inhibition |
| CC(=O)Oc1ccc2c(=O)c(Oc3ccccc3)coc2c1 [Compound 1782] | 56 % control | 57 % control | 28 % control |  |  | 106 % control | 139 % control | 89 % control | 61 % control |  |  |  | 100 % control |  | 93 % ctrl | 93 % control | 123 % control | 115 % control | 109 % control | 89 % control |  |
| CC(=O)Oc1ccc2c(=O)c(Oc3ccc(C(=O)O)cc3)coc2c1 [Compound 276] |  |  |  |  | 100 % control |  |  |  |  | 79 % control | 46 % control | 57 % control |  |  |  |  |  |  |  |  |  |
| COc1ccc(Oc2coc3cc(O)ccc3c2=O)cc1 [Compound 1781] | 74 % control | 64 % control | 55 % control | 41 % inhibition | 75 % control | 115 % control | 127 % control | 83 % control | 57 % control |  |  |  | 100 % control | trend of effect | 92 % ctrl | 100 % control | 136 % control | 137 % control | 104 % control | 104 % control | Effect on serum TNF-alpha (TNF-alpha): trend of effect; Effect on serum IL-12 (IL-12): trend of effect; Effect on LPS-induced increase in serum IFN-gamma level (IFN-gamma): significantly blocked; IL-6 mRNA stability assay (% inhibition) (IL-6 mRNA [5]; 10 μM, luciferase, n.a. = no activity): 84 % inhibition; IL-12 p40 mRNA stability assay (% inhibition) (IL-12 p40 mRNA): 62 % inhibition |
